Test systems include SF-539 CNS; PC-3 prostate; RXF 393 renal; HOP-62 NSCLC; SK-MEL-28 melanoma; 786-0 renal; SK-MEL-5 melanoma; HL-60(TB) leukemia; LOX IMVI melanoma; HOP-92 NSCLC.
What all share (test): DTP human tumour cell line panel, 48 h

Data on ten compounds can be found in PubChem BioAssay (NCI).

As a reminder, the GI50 is the concentration that inhibits growth by half. As usually defined, the TGI is the concentration at which net growth stops. A lower TGI goes with more potent growth arrest.

Where “and” joins values, the source holds several entries; their conditions need not be identical. Equal entries are not always repeated.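 Exposure lasted 48 hours, with cells grown in 96-well plates and compounds tested at five concentrations. At the GI50, growth is halved. TGI denotes the concentration required for complete inhibition of growth.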 Some results are limits rather than exact numbers.

Turning to `COc1ccc2nc(-c3cc(-c4cc(OC)c(OC)c(OC)c4)n[nH]3)[nH]c2c1`, the GI50 is 2.42 µM with SF-539 CNS; 1.03 µM with PC-3 prostate; 2.49 µM in the assay on RXF 393 renal; 2.02 µM with HOP-62 NSCLC; 1.9 µM in the assay on SK-MEL-28 melanoma; 2.92 µM in the assay on 786-0 renal. For the same compound, the GI50 in the assay on SK-MEL-5 melanoma is 0.462 µM; in the assay with HL-60(TB) leukemia, 1.69 µM. In addition, the TGI worked out at 9.71 µM in the assay on SF-539 CNS; 4.1 µM in the assay with PC-3 prostate; 12.3 µM in the assay on RXF 393 renal; 5.77 µM in the assay on HOP-62 NSCLC; 5.26 µM in the assay with SK-MEL-28 melanoma; 12.8 µM in the assay with 786-0 renal. Besides, the values for the TGI in the assay on SK-MEL-5 melanoma and in the assay on HL-60(TB) leukemia were 1.77 µM and 4.81 µM, respectively.
As to `CCCCCCCCCCCCCC(=O)O[C@H]1CC[C@H](NC(=O)[C@H](OC)[C@H](O)[C@@H](O)[C@H](O)/C=C/C(C)C)C(=O)NC1`, the TGI with SF-539 CNS is 22 µM and 17.6 µM; with PC-3 prostate, 51.2 µM and 12.7 µM; in the assay on LOX IMVI melanoma, 9.4 µM and 1.15 µM; with RXF 393 renal, 0.283 µM; in the assay with HOP-62 NSCLC it was 51.2 µM and 34 µM; in the assay on SK-MEL-28 melanoma it was 10.8 µM and 21.6 µM. The TGI was 4.12 µM in the assay with HOP-92 NSCLC; 0.928 µM in the assay with 786-0 renal; 1.37 µM and 0.25 µM with SK-MEL-5 melanoma. The GI50 in the assay with PC-3 prostate was 0.0152 µM; in the assay with HOP-62 NSCLC, less than 0.001 µM; in the assay with HOP-92 NSCLC, 0.554 µM.
Regarding `N#C/C(=C\c1ccc(-c2ccc(Cl)cc2)o1)C(=O)Nc1ncc(Cc2ccc(Cl)cc2)s1`, the GI50 is 1.66 µM with SF-539 CNS; 1.5 µM in the assay with PC-3 prostate; 2.62 µM in the assay on LOX IMVI melanoma; 2.32 µM with RXF 393 renal; 2.26 µM with HOP-62 NSCLC; 1.97 µM with HOP-92 NSCLC. The results for the GI50 in the assay on 786-0 renal, with SK-MEL-5 melanoma and in the assay with HL-60(TB) leukemia were 1.77 µM, 2.51 µM and more than 100 µM, respectively. The TGI is 3.84 µM in the assay on SF-539 CNS; 3.67 µM in the assay on PC-3 prostate; 7.55 µM in the assay with LOX IMVI melanoma; 6.85 µM in the assay on RXF 393 renal; 6.33 µM in the assay on HOP-62 NSCLC; 7.11 µM in the assay on HOP-92 NSCLC. Also, the TGI was 3.47 µM in the assay with 786-0 renal, 7.41 µM in the assay on SK-MEL-5 melanoma and more than 100 µM with HL-60(TB) leukemia.
For the compound `COc1ccc(-c2[nH]c3ccccc3c2C=C(C#N)C#N)cc1`, the GI50 with SF-539 CNS was 0.262 µM; in the assay with PC-3 prostate it was 0.547 µM; in the assay with LOX IMVI melanoma, 1.73 µM; in the assay on RXF 393 renal it was 0.511 µM; with HOP-62 NSCLC, 0.962 µM; with SK-MEL-28 melanoma, 1.14 µM. Also, the figures for the GI50 in the assay on HOP-92 NSCLC, in the assay with 786-0 renal and in the assay with HL-60(TB) leukemia were 1.21 µM, 0.715 µM and 0.271 µM, respectively. For the same compound, the TGI is 0.795 µM with SF-539 CNS; more than 100 µM with PC-3 prostate; more than 100 µM in the assay with LOX IMVI melanoma; more than 100 µM in the assay with RXF 393 renal; 21.8 µM in the assay on HOP-62 NSCLC; more than 39.3 µM in the assay on SK-MEL-28 melanoma. Besides, the TGI in the assay on HOP-92 NSCLC was more than 100 µM; in the assay on 786-0 renal, more than 32.1 µM; in the assay on HL-60(TB) leukemia, 0.714 µM.
As to `Cc1[nH]c2ccccc2c1C1Cc2ccccc2N1C(=O)/C=C/C=C/c1ccccc1` (configuration not stated), the TGI with SF-539 CNS, in the assay with LOX IMVI melanoma, in the assay with RXF 393 renal, with HOP-62 NSCLC, in the assay with SK-MEL-28 melanoma and in the assay on HOP-92 NSCLC was more than 100 µM each time. The TGI in the assay on 786-0 renal, in the assay with SK-MEL-5 melanoma and in the assay on HL-60(TB) leukemia was more than 100 µM each time.
In the case of `Oc1ccccc1-c1nn(CNc2cccc(Cl)c2)c(=S)o1`, the GI50 in the assay on SF-539 CNS was 27.6 µM; with PC-3 prostate it was 32.9 µM; with RXF 393 renal, 82.4 µM; in the assay with HOP-62 NSCLC, 90.8 µM; in the assay on HOP-92 NSCLC, 1.86 µM; in the assay on 786-0 renal it was 67.3 µM. Also, the GI50 with SK-MEL-5 melanoma was 89.2 µM. Besides, the TGI was more than 100 µM with SF-539 CNS; more than 100 µM in the assay with PC-3 prostate; more than 100 µM in the assay with RXF 393 renal; more than 100 µM in the assay on HOP-62 NSCLC; 31.7 µM in the assay with HOP-92 NSCLC; more than 100 µM in the assay with 786-0 renal. Besides, the TGI in the assay with SK-MEL-5 melanoma was more than 100 µM.
In the case of `Cn1nccc1Nc1nccc(-c2cc3c(s2)C(C)(C)N(CCN2CCOCC2)C3=O)n1`, the GI50 in the assay with SF-539 CNS was 27.9 µM; with PC-3 prostate, 28.8 µM; in the assay with LOX IMVI melanoma, 0.734 µM; in the assay on RXF 393 renal it was 4.73 µM; in the assay with HOP-62 NSCLC it was 7.53 µM; in the assay on SK-MEL-28 melanoma, 0.348 µM. The results for the GI50 in the assay on 786-0 renal, in the assay on SK-MEL-5 melanoma and in the assay with HL-60(TB) leukemia were 14.7 µM, 1.31 µM and 0.499 µM, respectively. Moreover, the TGI is more than 100 µM in the assay on SF-539 CNS; more than 100 µM in the assay on PC-3 prostate; more than 100 µM in the assay on LOX IMVI melanoma; more than 85.3 µM with RXF 393 renal; more than 100 µM in the assay on HOP-62 NSCLC; more than 100 µM in the assay with SK-MEL-28 melanoma. The total growth inhibition concentration (TGI) with 786-0 renal is more than 100 µM; in the assay on SK-MEL-5 melanoma it was 58 µM; in the assay with HL-60(TB) leukemia, 78 µM.
As to `Cc1cc(NS(=O)(=O)c2ccc(N=Nc3cc(N=Nc4ccc(S(=O)(=O)Nc5cc(C)nc(C)n5)cc4)c4c(NC(=O)C(Cl)Cl)cccc4c3OC(=O)C(Cl)Cl)cc2)nc(C)n1` (tested in a mixture with another compound), the TGI in the assay with SF-539 CNS is 42.8 µM; with LOX IMVI melanoma, 34.3 µM; in the assay with RXF 393 renal, 38.7 µM; in the assay with HOP-62 NSCLC it was 78.8 µM; with SK-MEL-28 melanoma it was 52.2 µM; with HOP-92 NSCLC, 59.2 µM. Further, the values for the TGI in the assay with 786-0 renal, with SK-MEL-5 melanoma and in the assay with HL-60(TB) leukemia were 35.9 µM, 10.5 µM and 52.4 µM, respectively.
In the case of `CC(C)(C)NC(C1=CC(C)(C)c2ccccc2C1=O)c1ccccc1` (configuration not stated), the GI50 with SF-539 CNS was 1.66 µM; with PC-3 prostate, 1.63 µM; with LOX IMVI melanoma, 1.42 µM; with RXF 393 renal it was 1.22 µM; in the assay with HOP-62 NSCLC it was 2.16 µM; in the assay on SK-MEL-28 melanoma it was 1.6 µM. The GI50 in the assay on 786-0 renal is 1.75 µM; with SK-MEL-5 melanoma it was 1.52 µM; with HL-60(TB) leukemia, 0.868 µM. The TGI with SF-539 CNS came out at 3.02 µM; in the assay on PC-3 prostate it was 3.42 µM; in the assay with LOX IMVI melanoma it was 2.73 µM; in the assay on RXF 393 renal, 2.53 µM; with HOP-62 NSCLC it was 4.84 µM; in the assay with SK-MEL-28 melanoma it was 2.95 µM. Moreover, the TGI came to 3.13 µM with 786-0 renal, 2.84 µM in the assay on SK-MEL-5 melanoma and 2.9 µM with HL-60(TB) leukemia.
Take `COc1ccc2c(=O)c(C)c(-c3ccccc3)oc2c1CN(C)C`: the TGI in the assay with SF-539 CNS, in the assay with LOX IMVI melanoma, with RXF 393 renal, in the assay on HOP-62 NSCLC, with SK-MEL-28 melanoma and in the assay on HOP-92 NSCLC was more than 100 µM throughout. For the same compound, the TGI with 786-0 renal, in the assay on SK-MEL-5 melanoma and in the assay with HL-60(TB) leukemia was more than 100 µM each time. Further, the GI50 with HL-60(TB) leukemia was > 100 µM and 34.6 µM.
